In patent EP4678629A1, “IONIZABLE LIPID MOLECULE, PREPARATION METHOD THEREFOR AND USE THEREOF” (Maxirna (Shanghai) Pharmaceutical Co., Ltd., priority 2023, dated 2024):

Legend:
[1] = Size and polydispersity index (PDI) of the lipid nanoparticle by dynamic light scattering; assay type: physicochemical; details: LNP encapsulating eGFP mRNA, ionizable lipid/DOPE/cholesterol/DMG-PEG2000 50/10/48.25/1.25 mol%, N/P 12; for Particle size: in nm (unit assumed)
In short: (§1)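 LNPs were made by microfluidic mixing of ionizable lipid/DOPE/cholesterol/DMG-PEG2000 (50/10/48.25/1.25 mol%) in ethanol with eGFP mRNA in 20 mM citrate pH 6.1, N/P 12, then ultrafiltered into DPBS and 0.2 µm filtered. Size and PDI by DLS at 173° backscatter; encapsulation by Ribogreen.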

[2] = Encapsulation efficiency of the lipid nanoparticle (eGFP mRNA) by Ribogreen method; assay type: physicochemical; details: LNP encapsulating eGFP mRNA, ionizable lipid/DOPE/cholesterol/DMG-PEG2000 50/10/48.25/1.25 mol%, N/P 12
In short: as §1

[3] = In vitro transfection of cells with eGFP-mRNA lipid nanoparticle (LNP preparation), fluorescence imaging and flow cytometry; assay type: cell-based, mouse; details: mouse, dc2.4 cells, 200 ng of mRNA per well, after 24 hours; read-out: Cell viability, %
In short: (§2)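 Mouse bone marrow-derived DC2.4 dendritic cells seeded at 2 × 10^5 cells/well in DMEM with 10% FBS, transfected with eGFP-mRNA LNPs the next day at 37 °C, 5% CO2. After 24 hours, viability, eGFP-positive rate and mean fluorescence intensity read by fluorescence imaging and flow cytometry.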

[4] = test system: DC2.4 cells; assay: as above; assay type: cell-based, mouse; details: eGFP positivity rate, DC2.4 cells, 200 ng of mRNA per well, after 24 hours
In short: as §2

Compound	PDI [1]	Particle size [1]	Encapsulation rate, % [2]	viability at 24 h [3]	Positive rate, % [4]
CCCCCCCCCCCOC(=O)CCCCN(CCCO)CCCN(CCCCC(=O)OCCCCCCCCCCC)CCCCC(=O)OCCCCCCCCCCC [Example 42, Diundecyl 5,5'-((3-((3-hydroxypropyl)(5-oxo-5-(undecyloxy)pentyl)amino)propyl)azadiyl)dipentanoate]	0.11	98.73	98.13%	94.1%	96.69%
CCCCCCCCCCCOC(=O)CCCCN(CCCCO)CCCN(CCCCC(=O)OCCCCCCCCCCC)CCCCC(=O)OCCCCCCCCCCC [Example 43, Diundecyl 5,5'-((3-((4-hydroxybutyl)(5-oxo-5-(undecyloxy)pentyl)amino)propyl)azahexyl)dipentanoate]	0.14		87.08%	88.2%	97.48%
CCCCCCCCCCCCOC(=O)CCCCCN(CCO)CCCN(CCCCCC(=O)OCCCCCCCCCCCC)CCCCCC(=O)OCCCCCCCCCCCC [Example 44, Didodecyl 6,6'-((3-((6-(dodecoxy)-6-oxohexyl)(2-hydroxyethyl)amino)propyl)azahexyl)dihexanoate]	0.20		99.38%	91.9%	94.2%
CCCCCCCCCCCCOC(=O)CCCCCN(CCCO)CCCN(CCCCCC(=O)OCCCCCCCCCCCC)CCCCCC(=O)OCCCCCCCCCCCC [Example 45, Didodecyl 6,6'-((3-((6-(dodecoxy)-6-oxohexyl)(3-hydroxypropyl)amino)propyl)azahexyl)dihexanoate]	0.20	84.66	99.60%	95%	95.29%
CCCCCCCCCCCCOC(=O)CCCCCN(CCCCO)CCCN(CCCCCC(=O)OCCCCCCCCCCCC)CCCCCC(=O)OCCCCCCCCCCCC [Example 46, Didodecyl 6,6'-((3-((6-(dodecyloxy)-6-oxohexyl)(4-hydroxybutyl)amino)propyl)azanediyl)dihexanoate]	0.22	72.75	99.86%	97.4%	96.64%
CCCCCCCCCCCCOC(=O)CCCCCCN(CCO)CCCN(CCCCCCC(=O)OCCCCCCCCCCCC)CCCCCCC(=O)OCCCCCCCCCCCC [Example 47, Didodecyl 7,7'-((3-((7-(dodecyloxy)-7-oxoheptyl)(2-hydroxyethyl)amino)propyl)azanediyl)diheptanoate]	0.26	83.85	99.77%	88.5%	97.39%
CCCCCCCCCCCCOC(=O)CCCCCCN(CCCO)CCCN(CCCCCCC(=O)OCCCCCCCCCCCC)CCCCCCC(=O)OCCCCCCCCCCCC [Example 48, Didodecyl 7,7'-((3-((7-(dodecyloxy)-7-oxoheptyl)(3-hydroxypropyl)amino)propyl)azanediyl)diheptanoate]	0.16	76.18	99.52%	94%	97.26%
CCCCCCCCCCCCOC(=O)CCCCCCN(CCCCO)CCCN(CCCCCCC(=O)OCCCCCCCCCCCC)CCCCCCC(=O)OCCCCCCCCCCCC [Example 49, Didodecyl 7,7'-((3-((7-(dodecyloxy)-7-oxoheptyl)(4-hydroxybutyl)amino)propyl)azanediyl)diheptanoate]	0.15	74.58	99.79%	91.6%	97.38%
CCCCCCCCCCCCOC(=O)CCCCCCCN(CCO)CCCN(CCCCCCCC(=O)OCCCCCCCCCCCC)CCCCCCCC(=O)OCCCCCCCCCCCC [Example 50, Didodecyl 8,8'-((3-((8-(dodecyloxy)-8-oxooctyl)(2-hydroxyethyl)amino)propyl)azanediyl)dioctanoate]	0.20	76.74	99.63%	90.4%	99.74%
CCCCCCCCCCCCOC(=O)CCCCCCCN(CCCO)CCCN(CCCCCCCC(=O)OCCCCCCCCCCCC)CCCCCCCC(=O)OCCCCCCCCCCCC [Example 51, Didodecyl 8,8'-((3-((8-(dodecyloxy)-8-oxooctyl)(3-hydroxypropyl)amino)propyl)azanediyl)dioctanoate]	0.18	75.07	99.28%	92%	99.64%
CCCCCCCCCCCCOC(=O)CCCCCCCN(CCCCO)CCCN(CCCCCCCC(=O)OCCCCCCCCCCCC)CCCCCCCC(=O)OCCCCCCCCCCCC [Example 52, Didodecyl 8,8'-((3-((8-(dodecyloxy)-8-oxooctyl)(4-hydroxybutyl)amino)propyl)azanediyl)dioctanoate]	0.17	69.63	99.18%	82.9%	85.37%
CCCCCCCCCCCCCCOC(=O)CCCCCN(CCO)CCCN(CCCCCC(=O)OCCCCCCCCCCCCCC)CCCCCC(=O)OCCCCCCCCCCCCCC [Example 53, Ditetradecyl 6,6'-((3-((2-hydroxyethyl)(6-oxo-6-(tetradecyloxy)hexyl)amino)propyl)azanediyl)dihexanoate]	0.09	91.34	97.67%	68.6%	86.07%
CCCCCCCCCCCCCCOC(=O)CCCCCN(CCCO)CCCN(CCCCCC(=O)OCCCCCCCCCCCCCC)CCCCCC(=O)OCCCCCCCCCCCCCC [Example 54, Ditetradecyl 6,6'-((3-((3-hydroxypropyl)(6-oxo-6-(tetradecyloxy)hexyl)amino)propyl)azanediyl)dihexanoate]	0.14	72.45	98.91%	75.9%	93.13%
CCCCCCCCCCCCCCOC(=O)CCCCCN(CCCCO)CCCN(CCCCCC(=O)OCCCCCCCCCCCCCC)CCCCCC(=O)OCCCCCCCCCCCCCC [Example 55, Ditetradecyl 6,6'-((3-((4-hydroxybutyl)(6-oxo-6-(tetradecyloxy)hexyl)amino)propyl)azanediyl)dihexanoate]	0.10	71.95	98.32%	86.6%	92.64%
CCCCCCCCCCCCCCOC(=O)CCCCCCN(CCO)CCCN(CCCCCCC(=O)OCCCCCCCCCCCCCC)CCCCCCC(=O)OCCCCCCCCCCCCCC [Example 56, Ditetradecyl 7,7'-((3-((2-hydroxyethyl)(7-oxo-7-(tetradecyloxy)heptyl)amino)propyl)azanediyl)diheptanoate]	0.14	64.31	99.68%	80.5%	93.64%
CCCCCCCCCCCCCCOC(=O)CCCCCCN(CCCO)CCCN(CCCCCCC(=O)OCCCCCCCCCCCCCC)CCCCCCC(=O)OCCCCCCCCCCCCCC [Example 57, Ditetradecyl 7,7'-((3-((3-hydroxypropyl)(7-oxo-7-(tetradecyloxy)heptyl)amino)propyl)azanediyl)diheptanoate]	0.17	68.32	99.36%	76.9%	97.36%
CCCCCCCCCCCCCCOC(=O)CCCCCCN(CCCCO)CCCN(CCCCCCC(=O)OCCCCCCCCCCCCCC)CCCCCCC(=O)OCCCCCCCCCCCCCC [Example 58, Ditetradecyl 7,7'-((3-((4-hydroxybutyl)(7-oxo-7-(tetradecyloxy)heptyl)amino)propyl)azanediyl)diheptanoate]	0.16	79.13	99.17%	63.2%	87.44%
CCCCCCCCCCCCCCOC(=O)CCCCCCCN(CCO)CCCN(CCCCCCCC(=O)OCCCCCCCCCCCCCC)CCCCCCCC(=O)OCCCCCCCCCCCCCC [Example 59, Ditetradecyl 8,8'-((3-((2-hydroxyethyl)(8-oxo-8-(tetradecyloxy)octyl)amino)propyl)azanediyl)dioctanoate]	0.08		91.15%	55.6%	96.89%
CCCCCCCCCCCCCCOC(=O)CCCCCCCN(CCCO)CCCN(CCCCCCCC(=O)OCCCCCCCCCCCCCC)CCCCCCCC(=O)OCCCCCCCCCCCCCC [Example 60, Ditetradecyl 8,8'-((3-((3-hydroxypropyl)(8-oxo-8-(tetradecyloxy)octyl)amino)propyl)azanediyl)dioctanoate]	0.10	65.40	99.46%	72.3%	97.14%
CCCCCCCCCCCCCCOC(=O)CCCCCCCN(CCCCO)CCCN(CCCCCCCC(=O)OCCCCCCCCCCCCCC)CCCCCCCC(=O)OCCCCCCCCCCCCCC [Example 61, Ditetradecyl 8,8'-((3-((4-hydroxybutyl)(8-oxo-8-(tetradecyloxy)octyl)amino)propyl)azanediyl)dioctanoate]	0.13	82.47	97.38%	71.2%	95.85%
